Reference: US7960392B2, “Nitrogen-containing heterocyclic compounds” (Asahi Kasei Pharma Corporation, priority 2008, dated 2011)

What was measured:
human EP1 receptor [1] = molecular target: T1, human EP1 receptor (Homo sapiens, UniProt P34995); assay: Antagonist activity (SRE-Luciferase reporter activity) using cells expressing human EP1 receptor; assay type: cell-based; settings: HEK293 cells stably expressing human EP1 receptor with SRE-Luciferase reporter; PGE2 final concentration 10 nM; 37° C. for 6 hours; read-out: IC50 value, antagonist activity measurement test using the cells expressing human EP1 receptor
T1 construct: expressed in transfected cells
T1 sequence (P34995 1-402): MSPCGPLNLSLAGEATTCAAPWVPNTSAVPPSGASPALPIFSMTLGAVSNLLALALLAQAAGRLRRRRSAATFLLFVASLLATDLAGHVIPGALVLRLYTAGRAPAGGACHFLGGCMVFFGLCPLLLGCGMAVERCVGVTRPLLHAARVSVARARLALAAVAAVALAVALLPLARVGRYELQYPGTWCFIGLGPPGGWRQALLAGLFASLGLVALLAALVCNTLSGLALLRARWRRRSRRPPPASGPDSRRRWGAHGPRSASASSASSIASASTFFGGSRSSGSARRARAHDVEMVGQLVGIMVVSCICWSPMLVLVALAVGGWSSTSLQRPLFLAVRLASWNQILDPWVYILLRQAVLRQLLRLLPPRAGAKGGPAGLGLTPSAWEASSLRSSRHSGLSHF
Protocol: (§1) Measurement of an Antagonist Activity by Using Cells Expressing Human EP1 Receptor
In order to investigate the EP1 receptor antagonist activity of the compounds of the present invention, a reporter activity was measured by using HEK293 cells in which human EP1 receptor has been stably expressed.
As a result of searching Refseq Database for prostaglandin E receptor, genetic information of human EP1 (NM_000955) receptor was obtained. Based on this sequence information, human EP1 receptor gene was cloned by PCR using human cDNA as a template and by other general method to give human EP1 receptor. Then, HEK293 in which the receptor is stably expressed was established, together with a reporter gene (SRE-Luciferase) in which serum responsible element (SRE) is added at the upstream region of firefly luciferase gene. The resulting cells were added to a 96 well plate (5×10^4 cells/well) and cultured for one day. To the plate, PGE2 (200 nM, final concentration 10 nM) and the test compound (in an amount of 1/20, 20× of the final concentration) were added to initiate the reaction. After allowing the reaction to proceed at 37° C. for 6 hours, the medium was aspirated off, added with a luminescent agent and the reporter activity was measured.

human EP1 receptor [2] = molecular target: T1, human EP1 receptor; assay: Antagonist activity (intracellular Ca2+ assay) using cells expressing human EP1 receptor; assay type: cell-based; settings: HEK293 cells stably expressing human EP1 receptor; inhibition of increase in intracellular Ca2+ concentration by PGE2 (10 nM); Fura 2-AM
Protocol: as §1
In order to investigate the EP1 receptor antagonist activity of the compounds of the present invention, intracellular Ca^2+ was measured by using HEK293 cells in which human EP1 receptor has been stably expressed.
Cells expressing human EP1 receptor were suspended in an assay buffer to the concentration of 5×10^6 cells/ml, added with Puronic F-127 (final concentration 0.2%), and Fura 2-AM (final concentration 5 uM), followed by incubation at 37° C. for 30 minutes. After washing twice with the assay buffer, the cells were again suspended in the assay buffer to 1×10^6 cells/60 ul, and then transferred to a 96 well UV plate (1×10^6 cells/60 ul/well). Thereafter, by using a fluorescent chemical screening system (FDSS4000, Hamamatsu Photonics K.K.), intracellular Ca^2+ concentration was measured after adding 20 ul of each of the test compounds and PGE2 (5× of the final concentration for both). Ca^2+ concentration was measured by determining fluorescence intensity after irradiation with two excitation wavelengths, i.e., 340 and 380 nm.
Furthermore, EP1 antagonist activity was calculated as a ratio (%) of inhibiting increase in intracellular Ca^2+ concentration by PGE2 (10 nM).
Assay buffer: 20 mM HEPES/KOH (pH 7.4), 115 mM NaCl, 5.4 mM KCl, 0.8 mM MgCl2, 0.8 mM CaCl2, 13.8 mM D-glucose, 0.1% BSA

human EP1 receptor [3] = molecular target: T1, human EP1 receptor; assay: Receptor binding test ([3H]PGE2 binding inhibition) using cells expressing human EP1 receptor; settings: membrane fraction of HEK293 cells stably expressing human EP1 receptor; [3H]PGE2 1 nM; 30° C. for 90 minutes; Ki=IC50/(1+[C]/Kd)
Protocol: Receptor Binding Test Using Cells Expressing Human EP1 Receptor
Inhibitory activity of the test compounds on binding of [^3H]PGE2 in HEK293 cells stably expressing human EP1 receptor was measured.
HEK293 cells which stably express human EP1 receptor were established by using the gene for human EP1 receptor, and then a membrane fraction was prepared therefrom. Thus-prepared membrane fraction was incubated at 30° C. for 90 minutes with a reaction solution (200 μL/well) which includes the test compound and [^3H]PGE2. Upon the completion of the reaction, the reaction solution was aspirated off under reduced pressure, and the [^3H]PGE2 bound to the membrane fraction was trapped by using Unifilter Plateg F/C (manufactured by Packard) and the bound radioactivity was counted with a liquid scintillator.
Kd value was obtained from a Scatchard plot. Non-specific binding was obtained from the binding in the presence of an excess amount (10 μM) of non-labeled PGE2. For the measurement of an inhibitory activity of the test compound on [^3H]PGE2 binding, [^3H]PGE2 (1 nM) and various concentrations of the test compound were added. Meanwhile, for all of the reactions, the buffer as described below was used.
Buffer;10 mM MES/NaOH (pH 6.0), 10 mM MgCl2, 1 mM EDTA, 0.1% BSA
Dissociation constant of the compounds, i.e., Ki, was obtained according to the following equation. […]

female SD rat = assay: Micturition interval prolongation in an anesthetized rat-II; assay type: in vivo; settings: urethane-anesthetized female SD rat; 0.2% acetic acid in physiological saline infused to the bladder; administered to the left femoral vein
Protocol: Micturition Interval Prolongation in an Anesthetized Rat-II
Activity of prolonging micturition interval in an anesthetized rat was determined with reference to the method established by Maggi, et al. (Eur. J. Pharmacol. 145, p. 105-112 (1988)). Specifically, a female SD rat was anesthetized with urethane and fixed in a flat position, and a catheter was inserted through an external urethral opening. Using a three-way stop cock, it was connected to a pressure transducer and a syringe pump. While infusing physiological saline including 0.2% acetic acid to the bladder at constant rate, cystometrogram was recorded. After confirming stabilized micturition interval, micturition threshold pressure and maximal voiding pressure, a solvent or the compound to be tested was administered to the left femoral vein and an activity of prolonging micturition interval was determined as an efficacy of the drug compound. Each group included five animals.

male SD rat = assay: Micturition interval prolongation in an awaken rat-II; assay type: in vivo; settings: cystitis induced by 0.3% acetic acid, intravenous administration, 60 minutes post- vs 30 minutes pre-administration
Description: Micturition Interval Prolongation in an Awaken Rat-II As a test animal, a male SD rat (Charles River Corporation, Japan) was used. The rat was anesthetized by isofluran inhalation (nitrous oxide:oxygen=7:3), and being laid on its stomach, it remained anesthetized by 2% isofluran inhalation. Then, an incision was made at the center region of the abdomen, and the bladder was exposed. A small incision was made to the vertex region of the bladder, and a polyethylene tube (PE-50: Becton Dickinson) was inserted to the bladder and fixed. One end of a cannula was subcutaneously directed to the backside of the animal, and after fixing the cannula to the abdomen wall, the incision was sealed. The cannula directed to the backside was connected to a seibel and the middle region was protected with a stainless spring. […] Then, through one end of the tube that had been inserted to the bladder, physiological saline warmed to 37° C. was injected at the rate of 3.0 mL/hr using a three-way stop cock, while the other end was connected to a pressure transducer and cystometrogram was recorded continuously with pressure amplification. The discharged urine was collected in a vessel placed on a digital balance and change in the urine weight was measured at the same time. […]

| Structure (SMILES) | IC50 (human EP1 receptor [1]) | IC50 (human EP1 receptor [2]) | further results |
| --- | --- | --- | --- |
| Cc1c(-c2ccccc2)nn(Cc2nc(C(=O)O)cs2)c1-c1ccccc1 [Exp. 14, 2-{(4-Methyl-3,5-diphenyl-1H-pyrazol-1-yl)methyl}thiazole-4-carboxylic acid] | 300 to 1000 nM | – | – |
| O=C(O)c1csc(-n2nc(-c3ccccc3O)cc2-c2ccccc2)n1 [Exp. 20] | 100 to 300 nM | 1000 to 3000 nM | – |
| Cc1c(-c2ccccc2)nn(-c2nc(C(=O)O)cs2)c1-c1ccccc1 [Exp. 30] | ≤ 100 nM | 300 to 1000 nM | Ki (human EP1 receptor [3]): ≤ 300 nM; Micturition interval prolonging activity (female SD rat): 25.8% |
| Nc1c(-c2ccccc2)nn(-c2nc(C(=O)O)cs2)c1-c1ccccc1 [Exp. 35] | ≤ 100 nM | ≤ 300 nM | Ki (human EP1 receptor [3]): ≤ 300 nM; micturition volume (male SD rat): increase in micturition volume; prolongation in micturition interval (male SD rat): at least 30% |
| O=C(O)c1csc(-n2nc(-c3ccccc3)c(F)c2-c2ccccc2)n1 [Exp. 36] | ≤ 100 nM | 300 to 1000 nM | – |
| O=C(O)c1csc(-n2nc(-c3ccccc3)c(Cl)c2-c2ccccc2)n1 [Exp. 37] | ≤ 100 nM | 300 to 1000 nM | – |
| O=C(O)c1csc(-n2nc(-c3ccccc3)c(Br)c2-c2ccccc2)n1 [Exp. 38] | ≤ 100 nM | ≤ 300 nM | – |
| COc1ccccc1-c1c(C)c(-c2ccccc2)nn1-c1nc(C(=O)O)cs1 [Exp. 42] | 300 to 1000 nM | – | – |
| Cc1c(-c2ccccc2)nn(-c2nc(C(=O)O)cs2)c1-c1cccc(F)c1 [Exp. 44] | ≤ 100 nM | – | – |
| Cc1c(-c2ccccc2)nn(-c2nc(C(=O)O)cs2)c1-c1cccc(O)c1 [Exp. 48] | 100 to 300 nM | – | – |
| Cc1c(-c2ccccc2)nn(-c2nc(C(=O)O)cs2)c1-c1ccc(F)cc1 [Exp. 54] | ≤ 100 nM | – | – |
| Cc1c(-c2ccccc2)nn(-c2nc(C(=O)O)cs2)c1-c1cc(F)cc(F)c1 [Exp. 80] | ≤ 100 nM | – | – |
| Cc1c(-c2ccccc2)nn(-c2nc(C(=O)O)cs2)c1-c1cc(F)ccc1F [Exp. 88] | 100 to 300 nM | – | – |
| Cc1c(-c2ccccc2)nn(-c2nc(C(=O)O)cs2)c1-c1cc(F)c(F)c(F)c1 [Exp. 90] | 100 to 300 nM | – | – |
| Cc1c(-c2ccccc2)nn(-c2nc(C(=O)O)cs2)c1-c1cccs1 [Exp. 91] | 100 to 300 nM | – | – |
| Cc1c(-c2ccccc2)nn(-c2nc(C(=O)O)cs2)c1-c1ccsc1 [Exp. 92] | ≤ 100 nM | – | – |
| Cc1c(-c2ccccc2)nn(-c2nc(C(=O)O)cs2)c1-c1ccco1 [Exp. 94] | ≤ 100 nM | 300 to 1000 nM | – |
| Cc1c(-c2ccccc2)nn(-c2nc(C(=O)O)cs2)c1-c1ccoc1 [Exp. 95] | ≤ 100 nM | 300 to 1000 nM | – |
| Cc1c(-c2ccccc2)nn(-c2nc(C(=O)O)cs2)c1-c1cccc2cccnc12 [Exp. 105] | ≤ 100 nM | – | – |
| Cc1c(-c2ccccc2)nn(-c2nc(C(=O)O)cs2)c1C1=CCCCO1 [Exp. 111] | ≤ 100 nM | ≤ 300 nM | – |
| O=C(O)c1csc(-n2nc(-c3ccccc3)c3c2-c2ccccc2C3)n1 [Exp. 114] | ≤ 100 nM | ≤ 300 nM | – |
| O=C(O)c1csc(-n2nc3c(c2-c2ccccc2)CCc2ccccc2-3)n1 [Exp. 116] | ≤ 100 nM | ≤ 300 nM | – |
| O=C(O)c1csc(-n2nc(-c3ccccc3)c3oc4ccccc4c32)n1 [Exp. 117] | ≤ 100 nM | – | – |
| Cc1c(-c2ccccc2)nn(/C=C\c2nc(C(=O)O)cs2)c1-c1ccccc1 [Exp. 127] | 300 to 1000 nM | – | – |
| Cc1c(-c2ccccc2)nn(/C=C/c2nc(C(=O)O)cs2)c1-c1ccccc1 [Exp. 128] | 100 to 300 nM | – | – |
